According to patent US20240279711A1, “MARKER FOR DNA DAMAGE IN PROXIMITY OF TRANSCRIBED GENOMIC LOCI AND METHODS FOR IDENTIFYING AND/OR QUANTIFYING THESE DNA DAMAGES” (FONDAZIONE ISTITUTO ITALIANO DI TECNOLOGIA, priority 2021, published 2024):

What was measured:
Format in all cases: cell-based
[1] = test system: mCherry-CDK12 recruitment at damaged DNA sites in U2OS cells; test: Laser micro-irradiation, time-lapse microscopy of mCherry-CDK12 recruitment to damaged DNA sites; details: for recruitment of mCherry-CDK12 at laser-damaged areas: 3 hours before laser micro-irradiation; for localisation of CDK12 at laser-damaged sites: 2 hours before laser microirradiation; for localisation of CDK12 at laser-damaged DNA sites: 1 hour before laser microirradiation
Description: FIGS. 6A and 6B show how the recruitment of CDK12 to DDR sites is transcription-dependent. U2OS cells, transfected with mCherry-CDK12 plasmid, were first treated with DRB (100 uM), Triptolide (1 uM) or DMSO (mock) for 3 hours and then micro-irradiated by laser. Selected regions within the nucleus were micro-irradiated with 10 iterations of a laser at 405 nm with 100% power. The cells were subjected to quantitative analysis using time-lapse microscopy.
U2OS cells were transfected with the mCherry-CDK12 encoding plasmid and treated with THZ531 (100 nM) or DMSO for 24 hours. The cells were previously treated with BrdU for 24 hours to sensitise the DNA to breaks by laser. To generate localised DNA damage, selected regions within the nucleus were micro-irradiated with 10 iterations of a laser at 405 nm with 100% power. The cells were then subjected to time-lapse microscopic analysis. For each condition, at least 30 cells were considered. FIG. 9A reports representative images used for the analysis shown in the graph of FIG. 9B.
U2OS cells were transfected with mCherry-CDK12 plasmid and pre-treated with KU-55933 (ATMi; 10 μM), VE-821 (ATRi; 10 µM) or DMSO (mock) for 2 hours prior to laser microirradiation. To generate localised DNA damage, selected regions within the nucleus were micro-irradiated with 10 iterations of a laser at 405 nm with 100% power. The cells were subjected to quantitative analysis by time-lapse microscopy. FIG. 10A: representative images used for the analysis shown in the graph in FIG. 10B.
FIGS. 11A and 11B show how CDK12 recruitment to DDR sites depends on PARP1 activity. U2OS cells were transfected with mCherry-CDK12 plasmid and pre-treated with Olaparib (1 µM), Veliparib (10 μM) or DMSO (mock) for 1 hour before laser microirradiation. To generate localised DNA damage, selected regions within the nucleus were micro-irradiated with 10 iterations of a laser at 405 nm with 100% power. The cells were then subjected to quantitative analysis by time-lapse microscopy.
U2OS cells were transfected with a vector encoding mCherry-CDK12. Cells were micro-irradiated with a laser beam to induce DNA breaks confined to appropriately selected nuclear areas.
In order to inhibit RNA-pol2, the cells were pre-treated with either (i) triptolide (a TFIIH inhibitor that blocks the start of transcriptional) or (ii) DRB (5,6-dichlorobenzimidazole riboside, a DSIF inhibitor that prevents transcriptional elongation).
U2OS cells were transfected with a vector encoding for mCherry-CDK12. Cells were micro-irradiated with a laser beam to induce DNA breaks confined to selected nuclear areas. In order to inhibit CDK12, the cells were pre-treated with THZ531, a covalent inhibitor of CDK12.
U2OS cells were transfected with a vector encoding for mCherry-CDK12. The cells were micro-irradiated with a laser beam to induce DNA breaks in selected nuclear areas. To inhibit the DDR response, the cells were pre-treated with an ATM inhibitor (KU-55933) or an ATR inhibitor (VE-821).
U2OS cells, transfected with a vector encoding for mCherry-CDK12, were micro-irradiated with a laser beam to induce DNA breaks confined to selected nuclear areas. To inhibit PARP1, the cells were pre-treated with Olaparib and Veliparib.

[2] = test system: mCherry-CDK12 recruitment to programmed DSBs in U2OS-TRE-I-Sce1 cells; test: CDK12 recruitment to programmed Sce-1 DSB, co-localisation with γH2A.X; details: U2OS-TRE-I-SceI cells, doxycycline, 3 hours
Description: FIGS. 7A and 7B show how CDK12 recruitment at a DNA-damaged locus is transcriptionally dependent. U2OS-TRE-I-SceI cells were transfected with plasmid vectors encoding mCherry-CDK12, p-rtTA, YFP-MS2 or I-Sce1. The cells were treated with doxycycline, which is required for the induction of the rtTA transcription factor that activates the transcription of the MS2 reporter gene. RNA-pol2 activity was inhibited by DRB (100 uM) or TRIPTOLIDE (TPL, 1 uM) for 3 hours. The cells were fixed with 4% PFA for 15 minutes and immunostained for γH2A. X. The table in FIG. 7B reports the percentage of cells showing co-localisation between CDK12 and γH2A. X (mean of two experiments).
U2OS-TRE-I-Sce-1 cells were transfected with plasmids encoding (i) YFP-MS2 (a chimeric gene produced by the MS2 CDNA fused with the YFP cDNA), (ii) mCherry-CDK12 (a chimeric fusion of mCherry and CDK12), (iii) rtTA (a doxycycline-activated transcription factor) and (iv) the restriction enzyme Sce-1. Transcription was activated by the addition of doxycycline and monitored by detecting subcellular positive nuclear foci for YFP signal. Sce-1-induced DSBs were visualised by immunofluorescence staining specific for the phosphorylated form of histone H2Ax (γH2A. X), a marker for DNA break detection and DNA damage response (DDR) signalling pathway activation. […]

[3] = test system: mCherry-CDK12 recruitment at endogenous DDR sites in RPE-iCUT cells; test: CDK12 recruitment to CRISPR-Cas9 induced DSBs at endogenous loci; details: DSBs 1 kb and 2 kb upstream of TSS of POLRIB, IFRD2, MCM2, DRB 100 uM, 3 hours before harvesting
Description: RPE iCUT cells, stably expressing inducible CRISPER-Cas9, were transfected with mCherry-CDK12. Cas9 was activated by doxycycline and SHIELD-1 for 16 hours. […] 3 hours before harvesting, the cells were treated with DRB (100 uM). The bar graph reports the percentage of cells showing co-localisation of CDK12 and γH2A. X in the indicated genomic regions (mean of two independent experiments, 40 cells were considered for each region).
For the site-specific induction of a DSB at selected endogenous genomic loci, we used RPE-iCUT cells: immortalised retinal epithelial cells engineered for CRISPR-CAS9 expression and conditional activation. These cells were transfected with mCherry-CDK12 and a set of sgRNAs (Alt-R-gRNA) designed to induce DBS in three expressed genes (MCM2, IFRD2 and POLRIB), in two regions upstream of their site of transcriptional onset (TSS), or designed to induce DSB in two genomic regions distal to transcribed loci. The induction of DSBs by CRISPR-Cas9 was assessed by immunofluorescence of γH2A. X, while the recruitment of CDK12 to DNA-damaged sites was assessed by microscopy analysis of mCherry signals. […] As a control, DSBs induced in regions distal to transcribed loci show low levels of CDK12 recruitment (close to the background signal), which are not altered by RNA-pol2 inhibitors (FIG. 8).

[4] = test system: MS2 reporter transcription in U2OS-TRE-I-Sce1 cells; test: MS2 reporter gene transcription at damaged locus (YFP-MS2 / pCherry-tTA-ER co-localisation); details: +SceI, OHT, THZ531 for 24 h
From the text: The fixed cells were processed to detect the γH2A. X signal by immunofluorescence. […] U2OS-TRE-I-Sce1 cells were transfected with plasmids encoding (i) YFP-MS2 (a chimeric gene produced from MS2 cDNA fused with YFP cDNA), (ii) mCherry-tTA-ER and (iii) the restriction enzyme Sce-1. Transcription was activated by addition of OHT and monitored by detecting positive nuclear foci for YFP signal. Sce1-induced DSBs were visualised by immunofluorescence staining of the phosphorylated form of the histone H2Ax (γH2A. X), a marker for DNA break detection and DNA damage response (DDR) signalling pathway activation.

## OC[C@H]1O[C@@H](n2cnc3cc(Cl)c(Cl)cc32)[C@H](O)[C@@H]1O [DRB, 5,6-dichlorobenzimidazole riboside]
[1]; DRB 100 uM
  recruitment of mCherry-CDK12 at laser-damaged areas: prevents the recruitment of mCherry-CDK12 at damaged areas
[2]; DRB 100 uM
  recruitment of mCherry-CDK12 at Sce-1 damaged locus: prevents the recruitment of mCherry-CDK12 at damaged areas
[3]
  CDK12 recruitment to DDR foci proximal to promoters: reduced its recruitment to damaged foci

## O=c1cc(-c2cccc3c2Sc2ccccc2S3)oc(N2CCOCC2)c1 [KU-55933]
[1]; KU-55933 (ATMi) 10 μM
  localisation of CDK12 at laser-damaged sites: Neither of the two inhibitor affected the localisation of CDK12 at the damaged sites

## O=C(c1cc(Cc2n[nH]c(=O)c3ccccc23)ccc1F)N1CCN(C(=O)C2CC2)CC1 [Olaparib]
[1]; Olaparib 1 µM
  localisation of CDK12 at laser-damaged DNA sites: inhibited the localisation of CDK12 at damaged DNA sites

## CN(C)C/C=C/C(=O)Nc1ccc(C(=O)N2CCC[C@@H](Nc3ncc(Cl)c(-c4c[nH]c5ccccc45)n3)C2)cc1 [THZ531]
[1]; THZ531 100 nM, 24 hours, BrdU pre-sensitised
  recruitment of CDK12 at DDR foci (laser): did not affect the recruitment of CDK12 at DDR foci
[4]
  MS2 reporter expression at damaged locus: reactivated MS2 reporter expression

## CS(=O)(=O)c1ccc(-c2cnc(N)c(C(=O)Nc3ccccc3)n2)cc1 [VE-821]
[1]; VE-821 (ATRi) 10 µM
  localisation of CDK12 at laser-damaged sites: Neither of the two inhibitor affected the localisation of CDK12 at the damaged sites

## C[C@]1(c2nc3c(C(N)=O)cccc3[nH]2)CCCN1 [Veliparib]
[1]; Veliparib 10 μM
  localisation of CDK12 at laser-damaged DNA sites: inhibited the localisation of CDK12 at damaged DNA sites

## CC(C)[C@]12O[C@H]1[C@@H]1O[C@]13[C@]1(O[C@H]1C[C@H]1C4=C(CC[C@@]13C)C(=O)OC4)[C@@H]2O [triptolide]
[1]; Triptolide 1 uM
  recruitment of mCherry-CDK12 at laser-damaged areas: prevents the recruitment of mCherry-CDK12 at damaged areas
[2]; TRIPTOLIDE 1 uM
  recruitment of mCherry-CDK12 at Sce-1 damaged locus: prevents the recruitment of mCherry-CDK12 at damaged areas
